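Results reflect a 48-hour exposure of cells in 96-well plates to compound at five concentrations. GI50: concentration for 50% inhibition of growth. The concentration for full growth arrest is given as TGI.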

Test systems include DMS 114 small cell lung; DMS 273 small cell lung; XF 498 CNS; RXF-631 renal; MDA-MB-231 breast; MDA-MB-435; MDA-N; BT-549 breast.
Test in all cases: NCI anticancer screen, dose series, 48 h

Turning to `Cc1nc(-c2cccnc2)sc1C(=O)/C=C/c1ccc(Cl)cc1Cl`, the TGI in the test with DMS 114 small cell lung and with DMS 273 small cell lung was > 100 µM throughout.

As for `NC(=O)NC(=O)C1CCC(=O)N1S(=O)(=O)c1ccc(Cl)cc1` (stereo not drawn), the TGI in the test with DMS 114 small cell lung, with XF 498 CNS and in the test on RXF-631 renal was > 100 µM in each case.

For the molecule `CCOC(=O)NC/C=C/CO`, the TGI with DMS 114 small cell lung, in the test on DMS 273 small cell lung and in the test with RXF-631 renal was > 100 µM each time.

`CCCCCCCCCCCCCCCC(=O)NCC(OCC)OCC`: the TGI in the test with DMS 114 small cell lung, in the test on DMS 273 small cell lung, in the test with XF 498 CNS and with RXF-631 renal was > 100 µM throughout.

As to `CC(=O)OCc1cc2c(s1)C(=O)c1sccc1C2=O`, the TGI is 0.692 µM in the test with MDA-MB-231 breast, 0.283 µM in the test on DMS 114 small cell lung, 0.299 µM with DMS 273 small cell lung and 0.0322 µM with MDA-MB-435.

Consider `Nc1nc(N)c(-c2ccccc2)c(C(=O)Nc2nccs2)n1`, for which the TGI with DMS 114 small cell lung and in the test on RXF-631 renal was > 100 µM throughout.

Consider `CN(C)c1ccc(/C=C2\Cc3ccccc3C2=O)cc1Br`, for which the results for the TGI in the test with DMS 114 small cell lung and in the test with XF 498 CNS were > 100 µM and 86.2 µM, respectively.

On to `O=[N+]([O-])c1cccc(C2=NOC3CCCC23)c1` (stereo not drawn), for which the TGI in the test with DMS 114 small cell lung and in the test with DMS 273 small cell lung was > 100 µM throughout.

On to `O=[N+]([O-])C1(CO)COC(CCc2ccccc2)OC1` (stereo not drawn), for which, in the test with XF 498 CNS, the TGI was > 100 µM.

On to `CC(=O)OCC1OC(OC(C)=O)C(NC#N)C(OC(C)=O)C1OC(C)=O` (stereo not drawn), for which the TGI with DMS 114 small cell lung and in the test on DMS 273 small cell lung was > 100 µM throughout.

As to `O=C1NC2(CCCCC2)C2=C1CCCCC2`, the TGI in the test on DMS 114 small cell lung, with DMS 273 small cell lung and in the test on XF 498 CNS was > 100 µM throughout.

Consider `COC(=O)N/N=C(\c1nc2ccc(Cl)cc2[nH]c1=O)C(O)c1ccc([N+](=O)[O-])cc1` (stereo not drawn), for which the TGI in the test with DMS 114 small cell lung, in the test on DMS 273 small cell lung and in the test on RXF-631 renal was > 100 µM each time.

In the case of `Cc1c(N)nc(C2CC(=O)N2CC(N)C(N)=O)nc1C(=O)NC(C(=O)NC(C)C(O)C(C)C(=O)NC(C(=O)NCCc1nc(-c2nc(C(=O)NCCNCC(C)O)cs2)cs1)C(C)O)C(OC1OC(CO)C(O)C(O)C1OC1OC(CO)C(O)C(OC(N)=O)C1O)c1cnc[nH]1` (stereo not drawn), the TGI in the test with MDA-MB-231 breast is > 50 µM; in the test with MDA-N, > 50 µM; in the test on DMS 114 small cell lung, 4.47 µM; in the test with DMS 273 small cell lung, 12 µM; in the test with BT-549 breast, > 50 µM; in the test on MDA-MB-435, 36.4 µM. Besides, in the test with XF 498 CNS, the TGI is > 22.4 µM.

Turning to `CN1C/C(=C\c2ccco2)c2nc(N)nc(-c3ccco3)c2C1`, the TGI with DMS 114 small cell lung was > 100 µM; in the test on DMS 273 small cell lung, > 100 µM; in the test with XF 498 CNS it was 90.2 µM.

For the molecule `Cc1c(C(=O)C/C(=N/NC(=O)CC#N)C(N)=O)[n+](=O)c2ccccc2n1[O-]`, the TGI with DMS 114 small cell lung is 57.8 µM; in the test with DMS 273 small cell lung, > 100 µM; in the test on XF 498 CNS, > 100 µM; in the test with RXF-631 renal, > 100 µM.

Take `CC1=C2[C@@H](c3ccccc3)C3C=CC2(C=C3C(F)(F)F)N(C(=O)NC2CCCCC2)C1=O` (stereo partly drawn): the TGI in the test on DMS 114 small cell lung, with DMS 273 small cell lung, in the test on XF 498 CNS and in the test with RXF-631 renal was > 100 µM in each case.

Regarding `COc1cccc(OC)c1/C=N\N1C(=O)c2ccccc2C1=O`, the TGI with DMS 114 small cell lung is 91 µM; in the test on DMS 273 small cell lung, 84.6 µM; in the test on XF 498 CNS, 86.4 µM; in the test on RXF-631 renal, > 100 µM.

Consider `CCOC(=O)C1=C(O)c2c(OC)ccc(OC)c2C(=O)C1=O`, for which the TGI in the test on DMS 114 small cell lung, in the test on DMS 273 small cell lung and in the test on XF 498 CNS was > 100 µM in each case.

As for `CCOC(=O)/C(=C/c1ccc[nH]1)P(=O)(OCC)OCC`, the TGI in the test with DMS 114 small cell lung, with DMS 273 small cell lung, in the test with XF 498 CNS and in the test on RXF-631 renal was > 100 µM in each case.

Regarding `COC(=O)C1=C(C)C(=O)C2(CCCCCC2C(=O)OC)C1` (stereo not drawn), the TGI with DMS 114 small cell lung and with DMS 273 small cell lung was > 100 µM each time.

For `O=C(CO[N+](=O)[O-])OCC(=O)c1ccccc1`, the TGI with DMS 273 small cell lung and with RXF-631 renal was > 100 µM each time.

`NC1=NN(c2ccccc2)C(=O)C1/C(=N\NC(=O)c1cc2ccccc2cc1O)C(=O)Nc1ccc(Cl)cc1` (stereo not drawn): the TGI with DMS 114 small cell lung is 56.7 µM; in the test on DMS 273 small cell lung, > 100 µM; with XF 498 CNS it was > 100 µM; in the test with RXF-631 renal, > 100 µM.

In the case of `Cc1[nH]n(C(=O)c2ccc(Cl)cc2)c(=O)c1/C=C1\C(O)=CC(=O)c2ccccc21`, the TGI with DMS 114 small cell lung and in the test on XF 498 CNS was > 100 µM in each case.

Regarding `CCCCc1c2c(nc3c1CC/C(=C\c1ccccc1)C3=O)CCCC2`, the TGI was 27.5 µM with DMS 114 small cell lung and 8.26 µM in the test on DMS 273 small cell lung.

Turning to `CC(C)=NO.CC(C)=NO.CC(C)=NO.CC(C)=NO.[Ti]`, the GI50 in the test on DMS 114 small cell lung, in the test with DMS 273 small cell lung, in the test on XF 498 CNS and in the test on RXF-631 renal was > 100 µM throughout. Further, the TGI with DMS 114 small cell lung, with DMS 273 small cell lung, in the test with XF 498 CNS and with RXF-631 renal was > 100 µM in each case.

Turning to `COC(=O)/C(=C/c1ccc(OC)cc1)c1cc(OC)c(OC)c(OC)c1`, the TGI in the test on MDA-MB-231 breast is > 100 µM; in the test on MDA-N, 0.43 µM; in the test on DMS 114 small cell lung it was > 23.3 µM; with DMS 273 small cell lung it was > 100 µM; with BT-549 breast, > 100 µM; with MDA-MB-435, 0.477 µM. This molecule also came in with a TGI in the test on XF 498 CNS of 83.7 µM.

`COC(=O)c1ccccc1NCc1cc(O)ccc1O`: the TGI in the test with MDA-N is 31.8 µM; in the test with DMS 273 small cell lung, > 100 µM; in the test with BT-549 breast it was 15 µM; in the test with MDA-MB-435, 34.2 µM; in the test on XF 498 CNS it was 33.1 µM.

In the case of `CCNC(=O)O/N=C1/C=C2CC[C@@H]3C(CC[C@@]4(C)C3CC[C@@H]4OC(=O)NCC)[C@@]2(C)CC1` (stereo partly drawn), the TGI amounted to 3.29 µM in the test with DMS 114 small cell lung and 5.5 µM in the test on DMS 273 small cell lung.

For `CN1OC(CO)CC12C1CC3CC(C1)CC2C3` (stereo not drawn), the TGI with DMS 114 small cell lung and with DMS 273 small cell lung was > 100 µM each time.

Regarding `CCCNc1ncnc2c1cnn2C`, the TGI in the test with DMS 114 small cell lung, in the test with DMS 273 small cell lung and in the test with XF 498 CNS was > 100 µM throughout.

For the molecule `Cn1ncc2c(c1=O)Nc1ccccc1S2(=O)=O`, the TGI was 40.9 µM in the test on DMS 114 small cell lung and > 100 µM with DMS 273 small cell lung.

As for `Cn1nc(-c2ccccc2)c(C(=O)/C=C/c2ccccc2)c(N2CCCC2)c1=O`, the TGI is 34.2 µM with DMS 114 small cell lung, 93.1 µM with DMS 273 small cell lung, 39.9 µM in the test on XF 498 CNS and > 100 µM with RXF-631 renal.

With `O=C(O)C12C3C4C1C1C2C3C41I` (stereo not drawn), the TGI with DMS 114 small cell lung, in the test on DMS 273 small cell lung, in the test with XF 498 CNS and in the test with RXF-631 renal was > 100 µM each time.

Regarding `NC1CC(n2ccc(=O)[nH]c2=O)OC1C(O)CO` (stereo not drawn), the TGI in the test with DMS 114 small cell lung, in the test on DMS 273 small cell lung, in the test on XF 498 CNS and in the test with RXF-631 renal was > 100 µM in each case.

For the origin of these results see PubChem BioAssay (NCI).
